Values after ≈ are worked out from the molar mass of the structure shown. Like-named read-outs stand apart in the source and are kept apart here.

Data on 23 compounds can be found in patent publication US20260035363A1, “COMPOUNDS AND METHODS OF USE THEREOF AS ANTIBACTERIAL AGENTS” (priority 2019, published 2026).

Holding throughout (assay type): cell-based
Assay [1] concerns Mycobacterium tuberculosis (Mtb-GFP; H37Rv pMSP12::GFP). In words: microbe, parasite or virus in culture. The note with it: 168 h, pH 6.8, read-out: Mtb Cho MITC95, cholesterol carbon source, pH 6.8, 7-day growth, GFP fluorescence, lowest concentration inhibiting 95% of growth.
The test system is the same in assay [2]. Description: microbe, parasite or virus in culture. The note with it: 168 h, pH 6.8, read-out: Mtb Glu MITC95, glucose carbon source, pH 6.8, 7-day growth, GFP fluorescence, lowest concentration inhibiting 95% of growth.
The subject of assay [3] is mitochondrial protein synthesis in HepG2 cells. In words: Mitochondrial protein synthesis assay (COX-I to SDH-A ratio, In Cell ELISA). Conditions: 4 days, ratio of COX-I to SDH-A levels, read-out: MPS IC50. As for the experimental part: Mitochondrial Protein Synthesis Assay
Inhibition of mitochondrial protein synthesis was assessed in HepG2 cells by comparing the levels of two subunits of oxidative phosphorylation enzyme complexes, subunit I of Complex IV (COX-I) and the 70 kDa subunit of Complex II (SDH-A). COX-I is mitochondrial DNA encoded and SDH-A is nuclear DNA encoded. HepG2 cells were seeded in 96-well collagen coated plates at 8,000 cells per well and exposed to 2-fold serial dilutions of compounds from 100 μM to 6.25 μM. Microtiter plates were incubated for approximately 5 replication cycles (4 days) prior to assessment of protein levels using a kit as described by the manufacturer (ab110217 MitoBiogenesis In Cell ELISA Kit, Abcam, Cambridge, MA). Inhibition of mitochondrial protein synthesis was expressed as a ratio of COX-1 to SDH-A levels.
A general note: An ELISA detects its analyte on a solid surface through an enzyme-linked reagent.

Turning to `CN1CCC(C)(S(=O)(=O)c2ccc(-c3ccc(C4=NO[C@@H](Cn5ccnn5)C4)cc3F)cc2)C1` (stereo partly drawn) [Example 45, l-({(5R)-3-[4′-(1,3-Dimethylpyrrolidine-3-sulfonyl)-2-fluoro[1,1′-biphenyl]-4-yl]-4,5-dihydro-1,2-oxazol-5-yl}methyl)-1H-1,2,3-triazole], the MIC was determined as 0.39 µM (≈ 0.189 µg/mL) in assay [1] and 0.19 µM (≈ 0.0919 µg/mL) in assay [2]. In addition, the half-inhibitory concentration (IC50) in assay [3] (Homo sapiens, HepG2, 96 h) came out at 4 µM.
As to `O=S1(=O)CCC(F)(c2c(F)cc(C3=NO[C@@H](Cn4cc(CO)nn4)C3)cc2F)CC1` [Example 40, 4-{2,6-Difluoro-4-[(5R)-5-{[4-(hydroxymethyl)-1H-1,2,3-triazol-1-yl]methyl}-4,5-dihydro-1,2-oxazol-3-yl]phenyl}-4-fluoro-1λ^6-thiane-1,1-dione], the MIC in assay [1] and in assay [2] was 1.56 µM (≈ 0.693 µg/mL) throughout. Besides, the half-inhibitory concentration (IC50) in assay [3] (Homo sapiens, HepG2, 96 h) is above 100 µM.
On to `CCC1(S(=O)(=O)c2ccc(-c3ccc(C4=NO[C@@H](Cn5ccnn5)C4)cc3F)cc2)CN(C)C1` [Example 43, 1-({(5R)-3-[4′-(3-Ethyl-1-methylazetidine-3-sulfonyl)-2-fluoro[1,1′-biphenyl]-4-yl]-4,5-dihydro-1,2-oxazol-5-yl}methyl)-1H-1,2,3-triazole], for which the MIC in assay [1] and in assay [2] was 0.19 µM (≈ 0.0919 µg/mL) in each case. The half-inhibitory concentration (IC50) in assay [3] (Homo sapiens, HepG2, 96 h) came to 4.1 µM.
As for `CN=S1(=O)CCC(F)(c2c(F)cc(C3=NO[C@@H](CNC(=O)OC)C3)cc2F)CC1` (single isomer, unassigned) [Example 9], the half-maximal inhibitory concentration (IC50) in assay [3] is above 100 µM.
In the case of `CS(=O)(=O)NC[C@H]1CC(c2ccc(-c3ccc(S(C)(=O)=O)cc3)c(F)c2)=NO1` [Example 19, N-({(5R)-3-[2-Fluoro-4′-(methanesulfonyl)[1,1′-biphenyl]-4-yl]-4,5-dihydro-1,2-oxazol-5-yl}methyl) methanesulfonamide], the MIC in assay [1] came to 9.38 µM (≈ 4 µg/mL); in assay [2] it was 6.25 µM (≈ 2.67 µg/mL). The 50% inhibitory concentration (IC50) in assay [3] (Homo sapiens, HepG2, 96 h) was above 100 µM.
As for `CN1CC(S(=O)(=O)c2ccc(-c3c(F)cc(C4=NO[C@@H](CO)C4)cc3F)cc2)C1` [Example 41, {(5R)-3-[2,6-Difluoro-4′-(1-methylazetidine-3-sulfonyl)[1,1′-biphenyl]-4-yl]-4,5-dihydro-1,2-oxazol-5-yl}methanol], the values for the MIC in assay [1] and in assay [2] were 2.34 µM (≈ 0.989 µg/mL) and 1.56 µM (≈ 0.659 µg/mL), respectively. Also, the IC50 in assay [3] (Homo sapiens, HepG2, 96 h) was above 100 µM.
On the same counts, the results for `CN1CC(F)(S(=O)(=O)c2ccc(-c3ccc(C4=NO[C@@H](Cn5ccnn5)C4)cc3F)cc2)C1` [Example 44, l-({(5R)-3-[2-Fluoro-4′-(3-fluoro-1-methylazetidine-3-sulfonyl)[1,1′-biphenyl]-4-yl]-4,5-dihydro-1,2-oxazol-5-yl}methyl)-1H-1,2,3-triazole] are 0.12 µM (≈ 0.0568 µg/mL), 0.09 µM (≈ 0.0426 µg/mL) and 1.4 µM.
For `CN1CC(S(=O)(=O)c2ccc(-c3ccc(C4=NO[C@@H](CO)C4)cc3F)cc2)C1` [Example 13, [(5R)-3-[3-Fluoro-4-[4-(1-methylazetidin-3-yl)sulfonylphenyl]phenyl]-4,5-dihydroisoxazol-5-yl]methanol], the MIC in assay [1] turned out to be 1.2 µM (≈ 0.485 µg/mL); in assay [2], 1 µM (≈ 0.404 µg/mL). In addition, in assay [3] (Homo sapiens, HepG2, 96 h), the IC50 came to 24 µM.
As to `CN1CC(C)(S(=O)(=O)c2ccc(-c3ccc(C4=NO[C@@H](CO)C4)cc3F)cc2)C1` [Example 21, {(5R)-3-[4′-(1,3-Dimethylazetidine-3-sulfonyl)-2-fluoro[1,1′-biphenyl]-4-yl]-4,5-dihydro-1,2-oxazol-5-yl}methanol], the MIC in assay [1] and in assay [2] was 1.56 µM (≈ 0.653 µg/mL) in each case. Moreover, the IC50 in assay [3] (Homo sapiens, HepG2, 96 h) is above 100 µM.
As to `CN1CC(F)(c2nnc3cc(-c4ccc(C5=NO[C@@H](Cn6ccnn6)C5)cc4F)ccn23)C1` [Example 51, 3-(3-Fluoro-1-methylazetidin-3-yl)-7-(2-fluoro-4-{(5R)-5-[(1H-1,2,3-triazol-1-yl)methyl]-4,5-dihydro-1,2-oxazol-3-yl}phenyl)[1,2,4]triazolo [4.3-a]pyridine], the MIC in assay [1] and in assay [2] was 0.09 µM (≈ 0.0405 µg/mL) throughout. Also, the 50% inhibitory concentration (IC50) in assay [3] (Homo sapiens, HepG2, 96 h) worked out at 1.4 µM.
For `CC1(c2nnc3cc(-c4ccc(C5=NO[C@@H](Cn6ccnn6)C5)cc4F)ccn23)CNC1` [Example 12, 7-(2-Fluoro-4-{(5R)-5-[(1H-1,2,3-triazol-1-yl)methyl]-4,5-dihydro-1,2-oxazol-3-yl}phenyl)-3-(3-methylazetidin-3-yl)[1,2,4]triazolo[4,3-a]pyridine], the MIC in assay [1] and in assay [2] was 0.78 µM (≈ 0.337 µg/mL) each time. The IC50 in assay [3] (Homo sapiens, HepG2, 96 h) is above 100 µM.
As for `N=S1(=O)CCC(F)(c2c(F)cc(C3=NO[C@@H](Cn4ccnn4)C3)cc2F)CC1` (stereo partly drawn) [Example 39, 4-(2,6-Difluoro-4-{(5R)-5-[(1H-1,2,3-triazol-1-yl)methyl]-4,5-dihydro-1,2-oxazol-3-yl}phenyl)-4-fluoro-1-imino-1λ^6-thian-1-one], the 50% inhibitory concentration (IC50) in assay [3] was above 100 µM.
Consider `CCOC(=O)NC[C@H]1CC(c2cc(F)c(C3(F)CCS(=O)(=O)CC3)c(F)c2)=NO1` [Example 55, Ethyl ({(5R)-3-[3,5-difluoro-4-(4-fluoro-1,1-dioxo-1λ^6-thian-4-yl)phenyl]-4,5-dihydro-1,2-oxazol-5-yl}methyl)carbamate], for which the MIC in assay [1] and in assay [2] was 3.12 µM (≈ 1.36 µg/mL) in each case. The concentration for half-maximal inhibition (IC50) in assay [3] (Homo sapiens, HepG2, 96 h) was above 100 µM.
In the case of `CN1CC(Oc2ccc(-c3ccc(C4=NO[C@@H](CO)C4)cc3F)cc2)C1` [Example 35, [(5R)-3-{2-Fluoro-4′-[(1-methylazetidin-3-yl)oxy][1,1′-biphenyl]-4-yl}-4,5-dihydro-1,2-oxazol-5-yl]methanol], the MIC in assay [1] and in assay [2] was 3.12 µM (≈ 1.11 µg/mL) each time. Moreover, the IC50 in assay [3] (Homo sapiens, HepG2, 96 h) is above 50 µM.
For the compound `CS(=O)(=O)NC[C@H]1CC(c2cc(F)c(C3(F)CCS(=O)(=O)CC3)c(F)c2)=NO1` [Example 53, N-({(5R)-3-[3,5-Difluoro-4-(4-fluoro-1,1-dioxo-1λ^6-thian-4-yl)phenyl]-4,5-dihydro-1,2-oxazol-5-yl}methyl) methanesulfonamide], the MIC in assay [1] and in assay [2] was 6.25 µM (≈ 2.75 µg/mL) throughout. The half-inhibitory concentration (IC50) in assay [3] (Homo sapiens, HepG2, 96 h) was above 100 µM.
For the compound `CN1CC(S(=O)(=O)c2ccc(-c3ccc(C4=NO[C@@H](CNS(C)(=O)=O)C4)cc3F)cc2)C1` [Example 11, N-({(5R)-3-[2-Fluoro-4′-(1-methylazetidine-3-sulfonyl)[1,1′-biphenyl]-4-yl]-4,5-dihydro-1,2-oxazol-5-yl}methyl)methanesulfonamide], the MIC in assay [1] came to 1.17 µM (≈ 0.563 µg/mL); in assay [2], 0.975 µM (≈ 0.47 µg/mL). Also, the IC50 in assay [3] (Homo sapiens, HepG2, 96 h) was above 100 µM.
Consider `CN1CC(C)(S(=O)(=O)c2ccc(-c3c(F)cc(C4=NO[C@@H](Cn5ccnn5)C4)cc3F)cc2)C1` [Example 22, 1-({(5R)-3-[4′-(1,3-Dimethylazetidine-3-sulfonyl)-2,6-difluoro[1,1′-biphenyl]-4-yl]-4,5-dihydro-1,2-oxazol-5-yl}methyl)-1H-1,2,3-triazole], for which the MIC in assay [1] was 0.49 µM (≈ 0.239 µg/mL); in assay [2], 0.29 µM (≈ 0.141 µg/mL). In addition, the IC50 in assay [3] (Homo sapiens, HepG2, 96 h) was determined as 25 µM.
With `CN1CC(C)(S(=O)(=O)c2ccc(-c3ccc(C4=NO[C@@H](Cn5ccnn5)C4)cc3F)cc2)C1` [Example 3, (5R)-3-[4-[4-(1,3-Dimethylazetidin-3-yl)sulfonylphenyl]-3-fluoro-phenyl]-5-(triazol-1-ylmethyl)-4,5-dihydroisoxazole], the MIC in assay [1] was 0.14 µM (≈ 0.0657 µg/mL); in assay [2], 0.12 µM (≈ 0.0563 µg/mL). Also, in assay [3] (Homo sapiens, HepG2, 96 h), the IC50 is 6.2 µM.
On the same counts, the results for `CN1CC(C)(S(=O)(=O)c2ccc(-c3ccc(C4=NO[C@@H](CNC(=O)C5CC5)C4)cc3F)cc2)C1` [Example 49, N-({(5R)-3-[4′-(1,3-Dimethylazetidine-3-sulfonyl)-2-fluoro[1,1′-biphenyl]-4-yl]-4,5-dihydro-1,2-oxazol-5-yl}methyl) cyclopropanecarboxamide] are 0.17 µM (≈ 0.0825 µg/mL), 0.15 µM (≈ 0.0728 µg/mL) and 51 µM.
Take `CN=S1(=O)CCC(F)(c2c(F)cc(C3=NO[C@@H](Cn4ccnn4)C3)cc2F)CC1` (single isomer, unassigned) [Example 7]: the half-inhibitory concentration (IC50) in assay [3] is above 100 µM.
As for `CN=S1(=O)CCC(F)(c2c(F)cc(C3=NO[C@@H](CNC(C)=O)C3)cc2F)CC1` (stereo partly drawn) [Example 30, N-{[(5R)-3-{3,5-Difluoro-4-[4-fluoro-1-(methylimino)-1-oxo-1λ^6-thian-4-yl]phenyl}-4,5-dihydro-1,2-oxazol-5-yl]methyl}acetamide], the IC50 in assay [3] was above 100 µM.
For the compound `O=S1(=O)CCN(c2c(F)cc(C3=NO[C@@H](Cn4ccnn4)C3)cc2F)CC1` [Example 5, 4-(2,6-Difluoro-4-{(5R)-5-[(1H-1,2,3-triazol-1-yl)methyl]-4,5-dihydro-1,2-oxazol-3-yl}phenyl)-1λ^6-thiomorpholine-1,1-dione], the MIC in assay [1] and in assay [2] was 3.12 µM (≈ 1.24 µg/mL) each time.
For `CN1CC(C)(S(=O)(=O)c2ccc(-c3ccc(C4=NO[C@@H](CNC(=O)OC5CC5)C4)cc3F)cc2)C1` [Example 17, Cyclopropyl N-[[(5R)-3-[4-[4-(1,3-dimethylazetidin-3-yl)sulfonylphenyl]-3-fluoro-phenyl]-4,5-dihydroisoxazol-5-yl]methyl]carbamate], the MIC in assay [1] and in assay [2] was 0.39 µM (≈ 0.196 µg/mL) in each case.

As a reminder, the IC50 is the concentration that inhibits the measured activity by half.
